Results reported in patent US9463175B2, “Antimalarial drug which contains 5-aminolevulinic acid or derivative thereof as active ingredient” (SBI Pharmaceuticals Co., Ltd., priority 2010, dated 2016).

Columns and labels:
[1] = test system: Plasmodium falciparum 3D7; assay: Infection rate in culture medium with high starting infection rate of 2%, 8 hours culture (Example 7); assay type: cell-based; conditions: ALA hydrochloride 200 μM + iron (II) chloride 10 μM; starting infection rate 2%; culture for 8 hours; nothing added: 3.1%
Method: (§1) An iron (II) chloride aqueous solution was added to 1 ml of Plasmodium falciparum 3D7 culture medium having an infection rate of 0.3% to a final concentration of 0.1, 1, 10, and 100 μM. As a control, a culture medium to which sterilized water had been added was used. Three culture media were prepared for each of the aforementioned concentrations, and a 12-well plate was used. After each culture medium had been cultured for 48 hours, the infection rate was measured by Giemsa staining. In addition, as for an ALA-added medium, an ALA chloride aqueous solution was added to the medium to a final concentration of 200 μM, and an iron (II) chloride aqueous solution was then added thereto to a final concentration of 0.1, 1, 10, and 100 μM. As described above, the culture medium was cultured for 48 hours, and the infection rate was then measured by Giemsa staining.
(§2) A culture medium was prepared in the same manner as in Example 5 with the exception that 2 ml of a culture medium having an infection rate of 2% was used. To the thus prepared culture medium, iron (II) chloride (final concentration: 10 μM) and ALA hydrochloride (final concentration: 200 μM) were added, followed by culture for 8 hours. Thereafter, the infection rate was measured by Giemsa staining.

[2] = test system: Plasmodium falciparum 3D7; assay: Infection rate in 2% culture with white LED irradiation (Example 8); assay type: cell-based; conditions: ALA hydrochloride 200 μM; starting infection rate 2%; 8 hours culture, white LED 15 minutes, further 8 hours
Method: as §2
ALA hydrochloride was added to a final concentration of 200 μM to a culture medium that had been prepared in the same manner as in Example 7. The obtained mixture was cultured for 8 hours, and thereafter, irradiated with white LED for 15 minutes. The resultant was further cultured for 8 hours, and the infection rate was then measured by Giemsa staining.

[3] = test system: Plasmodium falciparum 3D7; assay: Infection (proliferation) rate of Plasmodium falciparum 3D7 in random culture, Giemsa staining (Example 5); assay type: cell-based; conditions: 48 hours
Method: as §1
(§3) The infection (proliferation) rate (%) was calculated using the following formula: [(Infection rate after 48 hours−infection rate at initiation of culture)/(infection rate of control after 48 hours−infection rate at initiation of culture)]×100. It is to be noted that the infection rate at initiation of the culture was set at 0.3%.
The ratio of an increase in the infection rate caused by culture was indicated by setting a region to which neither iron nor ALA was added at 100%.

[4] = test system: Plasmodium falciparum 3D7; assay: Infection rate of Plasmodium falciparum 3D7 in synchronized culture at the ring stage (Example 6); assay type: cell-based
Method: as §1, §3
According to a common method, there was prepared a Plasmodium falciparum 3D7 culture medium having an infection rate of 0.3%, which was subjected to synchronized culture at the ring stage by treating with 5% sorbitol. The infection rate was measured by the same method as that described in Example 5. The final concentration of ALA hydrochloride was set at 200 μM.

[5] = test system: malaria parasites; conditions: cited from earlier work
[6] = test system: chloroquine-resistant malaria parasites; assay: Administration to a malaria patient not responding to chloroquine (Example 3); assay type: in vivo, human; conditions: predetermined amount of chloroquine alone, body temperature kept around 38 degrees
Method: A predetermined amount of chloroquine was administered to a patient who developed malaria. […] They suffered from headache, vertigo and nausea, and their body temperature was kept around 38 degrees. While administering chloroquine, a single capsule of the same capsule as used in Example 1 was also administered to the patient once a day. […] After administration of the capsule for 3 days, administration was suspended.

Cl.NCC(=O)CCC(=O)O [ALA hydrochloride]
infection rate [1]: 0.47%
infection rate [2]: 1.8%

NCC(=O)CCC(=O)O [ALA, 5-aminolevulinic acid]
Infection Rate (%) by Random Culture ([3]; ALA 200 μM + iron (II) chloride 0.1 μM): 88%
Infection Rate (%) by Random Culture ([3]; ALA 200 μM + iron (II) chloride 1 μM): 86%
Infection Rate (%) by Random Culture ([3]; ALA 200 μM + iron (II) chloride 10 μM): 59%
Infection Rate (%) by Random Culture ([3]; ALA 200 μM + iron (II) chloride 100 μM): 57%
Infection Rate (%) by Random Culture ([3]; ALA 200 μM, no iron (II) chloride): 96%
Infection Rate by Synchronized Culture (Ring Stage) ([4]; ALA hydrochloride 200 μM + iron (II) chloride 0.1 μM): 69%
Infection Rate by Synchronized Culture (Ring Stage) ([4]; ALA hydrochloride 200 μM + iron (II) chloride 1 μM): 58%
Infection Rate by Synchronized Culture (Ring Stage) ([4]; ALA hydrochloride 200 μM + iron (II) chloride 10 μM): 51%
Infection Rate by Synchronized Culture (Ring Stage) ([4]; ALA hydrochloride 200 μM + iron (II) chloride 100 μM): 5%
Infection Rate by Synchronized Culture (Ring Stage) ([4]; ALA hydrochloride 200 μM, no iron (II) chloride): 95%
parasiticidal effect of PDT ([5]; ALA 0.2 mM in medium, light irradiation from projector lamp of 410 W for 30 minutes): sufficient parasiticidal effect
ALA concentration in medium needed for PDT therapy to exhibit some effect ([5]; illumination with ordinary indoor light): 2 mM

CCN(CC)CCCC(C)Nc1ccnc2cc(Cl)ccc12 (stereo not shown) [chloroquine]
effect on malaria [6]: sufficient effects could not be obtained

[Cl][Fe][Cl] [iron (II) chloride, reference compound]
Infection Rate (%) by Random Culture ([3]; without ALA, iron (II) chloride 0.1 μM, no iron/no ALA = 100%): 98%
Infection Rate (%) by Random Culture ([3]; without ALA, iron (II) chloride 1 μM, no iron/no ALA = 100%): 97%
Infection Rate (%) by Random Culture ([3]; without ALA, iron (II) chloride 10 μM, no iron/no ALA = 100%): 95%
Infection Rate (%) by Random Culture ([3]; without ALA, iron (II) chloride 100 μM, no iron/no ALA = 100%): 82%
